Laboratory results: publication PMC10349806 (Nature Communications, 2023)
“And” between values parts separate entries of the source, which are not always exact repeats. Equal entries are not always repeated.

Target: PfCRT^Dd2 (Plasmodium falciparum, UniProt Q9N623, A220S/I356T/K76T/M74I/N326S/N75E/Q271E/R371I)
Test: Drug uptake assay, X. laevis oocytes expressing PfCRT^Dd2
Assay type: cell-based
Settings: for v-1 pH 4.5 / v-1 pH 5.0 / v-1 pH 5.5 / v-1 pH 6.0: Lineweaver-Burk
Procedure: Oocytes were obtained as described previously. Briefly, adult (>2 years old) female X. laevis frogs (NASCO) were anesthetized in a cooled solution of ethyl 3-amino benzoate methanesulfonate (0.1%, w/v), followed by a surgical removal of parts of the ovary. The ovary lobes were carefully dissected and small pieces of oocytes were incubated in Ca^2+-free ND96 buffer (96 mM NaCl, 2 mM KCl, 1 mM MgCl2 buffered with 5 mM HEPES/NaOH, pH 7.5) supplemented with collagenase D (0.1%, w/v; Roche), BSA (0.5%, w/v), and 9 mm Na2HPO4 at 18 °C for 14-16 h while gentle shaking. After incubation, the oocytes were carefully washed several times with ND96 buffer (96 mM NaCl, 2 mM KCl, 1.8 mM CaCl2, 1 mM MgCl2 buffered with 5 mM HEPES/NaOH, pH 7.5) supplemented with 100 mg l^−1 gentamycin). Defolliculated and healthy-looking stage V-VI oocytes were manually selected for RNA microinjection. The RNA was generated as following: The codon-optimized sequences of PfCRT variants were cloned into the pSP64T expression vector. After vector linearization using the restriction endonucleases BamHI or SalI (New England Biolabs), transcription was performed using the in vitro SP6 mMessage mMachine Kit (Ambion)[34]. The obtained RNA was kept at −80 °C and diluted with nuclease-free water to a concentration of 0.6 μg μl^−1. Precision-bore glass capillary tubes (3.5-inch glass capillaries; Drummond Scientific Co.) were pulled on a vertical puller (P-87 Flaming/Brown micropipette puller, Sutter Instrument Co.), graduated, and placed on a microinjector (Nanoject II Auto-Nanoliter Injector, Drummond Scientific Co.). 50 nl of nuclease-free water alone (control oocytes) or 50 nl of 0.6 μg μl^−1 RNA were injected under stereomicroscopic control. Injected oocytes were incubated for 46–72 h at 18 °C with twice-daily buffer changes before usage in experiments.
Drug uptake assays were performed as described previously[21],[22],[24],[34]. […] The direction of radio-labeled drug transport is here from the mostly acidic extracellular solution (pH 4.5 or 6.0, as indicated) into the oocyte cytosol (pH ∼ 7.2), which corresponds to the efflux of drug from the acidic digestive vacuole (pH 5.2) into the parasite cytoplasm (pH 7.2). The topology of PfCRT in the oolemma is such that both the N- and C-terminus face the extracellular milieu[3],[22]. In the parasite, the N- and C-terminus face the lumen of the digestive vacuole. […] For determination of the amount of drug uptake for each oocyte, the reaction medium was removed and the oocytes were washed three times with 2 ml of ice-cold ND96 buffer. Each oocyte was individually transferred to a scintillation vial containing 5% sodium dodecyl sulfate (200 μl) for lysis. […] Oocytes that were injected with water instead of RNA were analyzed in parallel, representing the uptake of a drug by diffusion and/or endogenous permeation pathways. The resulting value represents the “background“ level of drug accumulation in oocytes (in-depth discussion in[22]). The specific PfCRT-mediated uptake was determined by subtracting the corresponding background value measured in water-injected oocytes from that of PfCRT-expressing oocytes. In all cases, at least three separate experiments were performed on oocytes from different frogs (biological replicate), and for each condition in an experiment, measurements were made from 10 oocytes per treatment. For pH 5.5, 6.0, and 6.5, ND96 was buffered with 5 mM MES/Tris base. For pH 4.5, 5 mM Homo-Pipes was used as a buffer and 5 mM HEPES for uptake at pH 7.0.

Sequence of PfCRT^Dd2 (Q9N623 whole entry A220S/I356T/K76T/M74I/N326S/N75E/Q271E/R371I): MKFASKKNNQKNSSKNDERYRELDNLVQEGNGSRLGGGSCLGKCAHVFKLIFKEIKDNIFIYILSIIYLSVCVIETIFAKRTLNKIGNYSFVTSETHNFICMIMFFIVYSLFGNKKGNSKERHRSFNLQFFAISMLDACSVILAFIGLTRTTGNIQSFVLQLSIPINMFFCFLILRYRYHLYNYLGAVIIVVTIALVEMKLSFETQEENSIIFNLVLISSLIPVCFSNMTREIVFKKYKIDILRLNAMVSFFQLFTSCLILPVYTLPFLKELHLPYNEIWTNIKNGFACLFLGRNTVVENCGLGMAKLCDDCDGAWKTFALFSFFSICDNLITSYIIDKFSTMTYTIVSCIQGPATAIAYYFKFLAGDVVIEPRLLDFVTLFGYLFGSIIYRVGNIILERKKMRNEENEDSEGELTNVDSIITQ

## CCN(CC)CCCC(C)Nc1ccnc2cc(Cl)ccc12 (centres unmarked) [CQ, chloroquine]
300 µM CQ, time 90 min
  PfCRTDd2-mediated CQ transport activity: 21.08 pmol oocyte-1
300 µM CQ
  v-1 pH 4.5: 0.11 (pmol oocyte-1 h-1)-1
  v-1 pH 5.0: 0.09 (pmol oocyte-1 h-1)-1
  v-1 pH 5.5: 0.08 (pmol oocyte-1 h-1)-1
  v-1 pH 6.0: 0.0649 (pmol oocyte-1 h-1)-1
400 µM CQ, pH 4.5, 60 min
  PfCRTDd2 transport activity: 9.19 pmol oocyte-1 h-1 and 9.21 pmol oocyte-1 h-1 and 9.15 pmol oocyte-1 h-1 and 10.13 pmol oocyte-1 h-1 and 7.52 pmol oocyte-1 h-1 and 9.96 pmol oocyte-1 h-1
400 µM CQ, pH 5.0, 60 min
  PfCRTDd2 transport activity: 11.32 pmol oocyte-1 h-1
400 µM CQ, pH 5.0, individual replicates (Fig 4a)
  PfCRTDd2 transport activity 400 µM CQ pH 5.0: 11.40 pmol oocyte-1 h-1 and 11.89 pmol oocyte-1 h-1 and 10.67 pmol oocyte-1 h-1
400 µM CQ, pH 5.5, 60 min
  PfCRTDd2 transport activity: 13.77 pmol oocyte-1 h-1
400 µM CQ, pH 5.5, individual replicates (Fig 4a)
  PfCRTDd2 transport activity 400 µM CQ pH 5.5: 14.89 pmol oocyte-1 h-1 and 13.71 pmol oocyte-1 h-1 and 13.31 pmol oocyte-1 h-1
400 µM CQ, pH 6.0, 60 min
  PfCRTDd2 transport activity: 19.62 pmol oocyte-1 h-1 and 19.38 pmol oocyte-1 h-1 and 19.10 pmol oocyte-1 h-1 and 20.37 pmol oocyte-1 h-1
400 µM CQ, pH 6.0, individual replicates (Fig 4a)
  PfCRTDd2 transport activity 400 µM CQ pH 6.0: 19.38 pmol oocyte-1 h-1 and 19.10 pmol oocyte-1 h-1 and 20.37 pmol oocyte-1 h-1
400 µM CQ, time 0 min
  PfCRTDd2-mediated CQ transport activity: 0.00 pmol oocyte-1
400 µM CQ, time 30 min
  PfCRTDd2-mediated CQ transport activity: 11.37 pmol oocyte-1
400 µM CQ, time 60 min
  PfCRTDd2-mediated CQ transport activity: 18.93 pmol oocyte-1
400 µM CQ, time 90 min
  PfCRTDd2-mediated CQ transport activity: 23.37 pmol oocyte-1
400 µM CQ
  v-1 pH 4.5: 0.11 (pmol oocyte-1 h-1)-1
  v-1 pH 5.0: 0.09 (pmol oocyte-1 h-1)-1
  v-1 pH 5.5: 0.07 (pmol oocyte-1 h-1)-1
  v-1 pH 6.0: 0.05 (pmol oocyte-1 h-1)-1
500 µM CQ, pH 4.5, 60 min
  PfCRTDd2 transport activity: 9.38 pmol oocyte-1 h-1 and 9.85 pmol oocyte-1 h-1 and 9.73 pmol oocyte-1 h-1 and 10.40 pmol oocyte-1 h-1 and 7.53 pmol oocyte-1 h-1
500 µM CQ, pH 4.5, individual replicates (Fig 4a)
  PfCRTDd2 transport activity 500 µM CQ pH 4.5: 9.85 pmol oocyte-1 h-1 and 9.73 pmol oocyte-1 h-1 and 10.40 pmol oocyte-1 h-1 and 7.53 pmol oocyte-1 h-1
500 µM CQ, pH 5.0, 60 min
  PfCRTDd2 transport activity: 11.35 pmol oocyte-1 h-1
500 µM CQ, pH 5.0, individual replicates (Fig 4a)
  PfCRTDd2 transport activity 500 µM CQ pH 5.0: 12.28 pmol oocyte-1 h-1
500 µM CQ, pH 5.5, 60 min
  PfCRTDd2 transport activity: 14.75 pmol oocyte-1 h-1
500 µM CQ, pH 5.5, individual replicates (Fig 4a)
  PfCRTDd2 transport activity 500 µM CQ pH 5.5: 14.32 pmol oocyte-1 h-1 and 15.56 pmol oocyte-1 h-1 and 14.38 pmol oocyte-1 h-1 and 14.75 pmol oocyte-1 h-1
500 µM CQ, pH 6.0, 60 min
  PfCRTDd2 transport activity: 20.73 pmol oocyte-1 h-1 and 20.81 pmol oocyte-1 h-1 and 20.59 pmol oocyte-1 h-1 and 20.78 pmol oocyte-1 h-1
500 µM CQ, pH 6.0, individual replicates (Fig 4a)
  PfCRTDd2 transport activity 500 µM CQ pH 6.0: 20.81 pmol oocyte-1 h-1 and 20.59 pmol oocyte-1 h-1 and 20.78 pmol oocyte-1 h-1
500 µM CQ, time 0 min
  PfCRTDd2-mediated CQ transport activity: 0.00 pmol oocyte-1
500 µM CQ, time 30 min
  PfCRTDd2-mediated CQ transport activity: 18.55 pmol oocyte-1
500 µM CQ, time 60 min
  PfCRTDd2-mediated CQ transport activity: 25.91 pmol oocyte-1
500 µM CQ, time 90 min
  PfCRTDd2-mediated CQ transport activity: 27.18 pmol oocyte-1
500 µM CQ
  v-1 pH 4.5: 0.11 (pmol oocyte-1 h-1)-1
  v-1 pH 5.0: 0.09 (pmol oocyte-1 h-1)-1
  v-1 pH 5.5: 0.07 (pmol oocyte-1 h-1)-1
